According to PubChem BioAssay (NCI):
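Briefly, cells in 96-well plates were exposed to five compound concentrations for 48 h, and endpoints were estimated by linear interpolation. TGI: concentration producing complete growth inhibition.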

Legend:
Test in all cases: NCI tumour cell line growth inhibition, 48 h
786-0 renal = system: 786-0 renal
A498 renal = system: A498 renal
A549 NSCLC = system: A549 NSCLC
ACHN renal = system: ACHN renal
BT-549 breast = system: BT-549 breast
CAKI-1 renal = system: CAKI-1 renal
CCRF-CEM leukemia = system: CCRF-CEM leukemia
EKVX NSCLC = system: EKVX NSCLC
HCC-2998 colon = system: HCC-2998 colon
HCT-116 colon = system: HCT-116 colon
HCT-15 colon = system: HCT-15 colon
HL-60(TB) leukemia = system: HL-60(TB) leukemia
HOP-62 NSCLC = system: HOP-62 NSCLC
HOP-92 NSCLC = system: HOP-92 NSCLC
HS 578T breast = system: HS 578T breast
HT29 colon = system: HT29 colon
IGROV1 ovarian = system: IGROV1 ovarian
KM12 colon = system: KM12 colon
LOX IMVI melanoma = system: LOX IMVI melanoma
M14 melanoma = system: M14 melanoma
MALME-3M melanoma = system: MALME-3M melanoma
MCF7 breast = system: MCF7 breast
MDA-MB-231 breast = system: MDA-MB-231 breast
MDA-MB-435 = system: MDA-MB-435
NCI-H226 lung = system: NCI-H226 lung
NCI-H23 lung = system: NCI-H23 lung
NCI-H460 lung = system: NCI-H460 lung
NCI-H522 lung = system: NCI-H522 lung
NCI/ADR-RES ovarian = system: NCI/ADR-RES ovarian
OVCAR-3 ovarian = system: OVCAR-3 ovarian
OVCAR-4 ovarian = system: OVCAR-4 ovarian
OVCAR-5 ovarian = system: OVCAR-5 ovarian
OVCAR-8 ovarian = system: OVCAR-8 ovarian
PC-3 prostate = system: PC-3 prostate
RPMI-8226 leukemia = system: RPMI-8226 leukemia
RXF 393 renal = system: RXF 393 renal
SF-268 CNS = system: SF-268 CNS
SF-295 CNS = system: SF-295 CNS
SF-539 CNS = system: SF-539 CNS
SK-MEL-2 melanoma = system: SK-MEL-2 melanoma
SK-MEL-28 melanoma = system: SK-MEL-28 melanoma
SK-MEL-5 melanoma = system: SK-MEL-5 melanoma
SK-OV-3 ovarian = system: SK-OV-3 ovarian
SN12C renal = system: SN12C renal
SNB-75 CNS = system: SNB-75 CNS
SR leukemia = system: SR leukemia
SW-620 colon = system: SW-620 colon
T-47D breast = system: T-47D breast
TK-10 renal = system: TK-10 renal
U251 CNS = system: U251 CNS
UACC-257 melanoma = system: UACC-257 melanoma
UACC-62 melanoma = system: UACC-62 melanoma
UO-31 renal = system: UO-31 renal
COLO 205 colon = system: COLO 205 colon
DU-145 prostate = system: DU-145 prostate
MOLT-4 leukemia = system: MOLT-4 leukemia
SNB-19 CNS = system: SNB-19 CNS

Measured: TGI

CCOc1ccc(NC(=O)/C(=N\N)C(C(=O)OC)c2nc3ccc(Cl)cc3[nH]c2=O)cc1 (configuration not stated)
> 100 µM: 786-0 renal | A498 renal | A549 NSCLC | ACHN renal | BT-549 breast | CAKI-1 renal | CCRF-CEM leukemia | EKVX NSCLC | HCC-2998 colon | HCT-116 colon | HCT-15 colon | HL-60(TB) leukemia | HOP-62 NSCLC | HOP-92 NSCLC | HS 578T breast | HT29 colon | IGROV1 ovarian | KM12 colon | LOX IMVI melanoma | M14 melanoma | MALME-3M melanoma | MCF7 breast | MDA-MB-231 breast | MDA-MB-435 | NCI-H226 lung | NCI-H23 lung | NCI-H460 lung | NCI-H522 lung | NCI/ADR-RES ovarian | OVCAR-3 ovarian | OVCAR-4 ovarian | OVCAR-5 ovarian | OVCAR-8 ovarian | PC-3 prostate | RPMI-8226 leukemia | RXF 393 renal | SF-268 CNS | SF-295 CNS | SF-539 CNS | SK-MEL-2 melanoma | SK-MEL-28 melanoma | SK-MEL-5 melanoma | SK-OV-3 ovarian | SN12C renal | SNB-75 CNS | SR leukemia | SW-620 colon | T-47D breast | TK-10 renal | U251 CNS | UACC-257 melanoma | UACC-62 melanoma | UO-31 renal

COc1ccc2c(=O)c(-c3cc4c(cc3OC)OCO4)coc2c1
> 100 µM: 786-0 renal | A498 renal | A549 NSCLC | ACHN renal | BT-549 breast | CAKI-1 renal | CCRF-CEM leukemia | COLO 205 colon | DU-145 prostate | EKVX NSCLC | HCC-2998 colon | HCT-116 colon | HCT-15 colon | HL-60(TB) leukemia | HOP-62 NSCLC | HOP-92 NSCLC | HS 578T breast | HT29 colon | IGROV1 ovarian | KM12 colon | LOX IMVI melanoma | M14 melanoma | MCF7 breast | MDA-MB-231 breast | MOLT-4 leukemia | NCI-H226 lung | NCI-H23 lung | NCI-H460 lung | NCI-H522 lung | NCI/ADR-RES ovarian | OVCAR-3 ovarian | OVCAR-4 ovarian | OVCAR-5 ovarian | OVCAR-8 ovarian | PC-3 prostate | RPMI-8226 leukemia | SF-268 CNS | SF-295 CNS | SF-539 CNS | SK-MEL-2 melanoma | SK-MEL-28 melanoma | SK-MEL-5 melanoma | SK-OV-3 ovarian | SN12C renal | SNB-19 CNS | SNB-75 CNS | SR leukemia | SW-620 colon | T-47D breast | TK-10 renal | U251 CNS | UACC-257 melanoma | UACC-62 melanoma | UO-31 renal
